Data reported in patent US12053459B2, “CDK2 inhibitors and methods of using the same” (Cedilla Therapeutics, Inc., priority 2021, dated 2024).

Columns and labels:
Kuramochi cells = experiment: BrdU cell proliferation assay (colorimetric ELISA), Kuramochi cells; assay type: cell-based; details: class symbols A-D
How it was run: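 Kuramochi cells (2,000/well, with Kuramochi RB^KO cells as a specificity control) were treated with a 4-point, 3-fold dilution series made from 10 mM compound stocks and left for 4 days at 37 °C. Proliferation was measured by 1 h BrdU labelling, then anti-BrdU peroxidase ELISA read at 450 nm. Signals were background-subtracted and normalized to DMSO wells.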

CDK2/Cyclin E1(14-475) = CDK2/Cyclin E1(14-475) (Homo sapiens, UniProt P24941); experiment: Caliper LabChip EZ Reader mobility shift assay, inhibition of CDK2/Cyclin E1 activity; assay type: biochemical; details: class symbols A-D
How it was run: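 CDK2/Cyclin E1(14-475) pre-incubated 30 min with compound and ATP, then reaction started with 5-FAM-QSPKKG-CONH2; final 2.5 nM enzyme, 100 μM ATP, 1.5 μM peptide, HEPES pH 7.5. Stopped with EDTA after 100 min; substrate/product conversion by capillary electrophoresis mobility shift, IC50 from four-parameter fit.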

## CNC(=O)[C@@H](CCCC(C)(C)C)NC(=O)C1CN(C(=O)Cc2c[nH]c3cc(Cl)ccc23)CC2CN(C(=O)c3ccc(OC(C)C)c(OC)c3)CC21 (some centres unmarked) [I-95]
Kuramochi cells
  IC50: > 10 µM
CDK2/Cyclin E1(14-475)
  IC50: 0.5 to 5 µM

## CNC(=O)[C@H](CCCC(C)C)NC(=O)C1CN(C(=O)Cc2c[nH]c3cc(Cl)ccc23)CC2CN(C(=O)c3ccc(OC(C)C)c(OC)c3)CC21 (some centres unmarked) [I-97]
Kuramochi cells
  IC50: > 10 µM
CDK2/Cyclin E1(14-475)
  IC50: 0.5 to 5 µM

## COc1cc(C(=O)N2CC3CN(C(=O)Cc4c[nH]c5cc(Cl)ccc45)CC(C(=O)N[C@@H](C)C(=O)NCCCc4ccccc4)C3C2)ccc1OC(C)C (some centres unmarked) [I-98]
Kuramochi cells
  IC50: > 10 µM
CDK2/Cyclin E1(14-475)
  IC50: 0.5 to 5 µM

## COc1cc(C(=O)N2CC3CN(C(=O)Cc4c[nH]c5cc(Cl)ccc45)CC(C(=O)NCC(=O)NCCCc4ccccc4)C3C2)ccc1OC(C)C (centres unmarked) [I-99]
Kuramochi cells
  IC50: > 10 µM
CDK2/Cyclin E1(14-475)
  IC50: 0.5 to 5 µM

## CNC(=O)[C@@H](NC(=O)C1CN(C(=O)Cc2c[nH]c3cc(Cl)ccc23)CC2CN(C(=O)c3ccc(OC(C)C)c(OC)c3)CC21)[C@@H](C)OCc1ccccc1 (some centres unmarked) [I-102]
Kuramochi cells
  IC50: > 10 µM
CDK2/Cyclin E1(14-475)
  IC50: 0.5 to 5 µM

## COc1cc(C(=O)N2CC3CN(C(=O)Cc4c[nH]c5cc(Cl)ccc45)CC(C(=O)N[C@@H](C)C(=O)N(C)CCCc4ccccc4)C3C2)ccc1OC(C)C (some centres unmarked) [I-103]
Kuramochi cells
  IC50: > 10 µM
CDK2/Cyclin E1(14-475)
  IC50: 0.5 to 5 µM

## CNC(=O)[C@@H](CCCC1CCC(C(F)(F)F)CC1)NC(=O)C1CN(C(=O)Cc2c[nH]c3cc(Cl)ccc23)CC2CN(C(=O)c3ccc(OC(C)C)c(OC)c3)CC21 (some centres unmarked) [I-104]
Kuramochi cells
  IC50: > 10 µM
CDK2/Cyclin E1(14-475)
  IC50: > 10 µM

## CNC(=O)[C@H](NC(=O)C1CN(C(=O)Cc2c[nH]c3cc(Cl)ccc23)CC2CN(C(=O)c3ccc(OC(C)C)c(OC)c3)CC21)[C@H](C)OCc1ccccc1 (some centres unmarked) [I-105]
Kuramochi cells
  IC50: > 10 µM
CDK2/Cyclin E1(14-475)
  IC50: > 10 µM

## CNC(=O)[C@@H](NC(=O)C1CN(C(=O)Cc2c[nH]c3cc(Cl)ccc23)CC2CN(C(=O)c3ccc(OC(C)C)c(OC)c3)CC21)[C@H](C)OCC1CCCCC1 (some centres unmarked) [I-107]
Kuramochi cells
  IC50: 0.5 to 5 µM
CDK2/Cyclin E1(14-475)
  IC50: ≤ 0.5 µM

## CNC(=O)[C@H](NC(=O)C1CN(C(=O)Cc2c[nH]c3cc(Cl)ccc23)CC2CN(C(=O)c3ccc(OC(C)C)c(OC)c3)CC21)[C@@H](C)OCC1CCCCC1 (some centres unmarked) [I-108]
Kuramochi cells
  IC50: > 10 µM
CDK2/Cyclin E1(14-475)
  IC50: > 10 µM

## COc1cc(C(=O)N2CC3CN(C(=O)Cc4c[nH]c5cc(Cl)ccc45)CC(C(=O)N[C@@H](CCCc4ccccc4)C(N)=O)C3C2)ccc1OC(C)C (some centres unmarked) [I-109]
Kuramochi cells
  IC50: > 10 µM
CDK2/Cyclin E1(14-475)
  IC50: 0.5 to 5 µM

## CNC(=O)[C@@H](CCCC1CCCCC1)NC(=O)C1CN(C(=O)Cc2c[nH]c3cc(Cl)ccc23)CC2CN(C(=O)c3ccc(OC(C)C)c(OC)c3)CC21 (some centres unmarked) [I-112]
Kuramochi cells
  IC50: > 10 µM
CDK2/Cyclin E1(14-475)
  IC50: 5 to 10 µM

## CNC(=O)[C@H](CCCC1CCCCC1)NC(=O)C1CN(C(=O)Cc2c[nH]c3cc(Cl)ccc23)CC2CN(C(=O)c3ccc(OC(C)C)c(OC)c3)CC21 (some centres unmarked) [I-113]
Kuramochi cells
  IC50: > 10 µM
CDK2/Cyclin E1(14-475)
  IC50: 0.5 to 5 µM

## CNC(=O)[C@@H](CCCC(C)C)NC(=O)C1CN(C(=O)Cc2c[nH]c3cc(Cl)ccc23)CC2CN(C(=O)c3ccc(OC(C)C)c(OC)c3)CC21 (some centres unmarked) [I-114]
Kuramochi cells
  IC50: > 10 µM
CDK2/Cyclin E1(14-475)
  IC50: > 10 µM

## CNC(=O)[C@H](CCCc1ccc(O)cc1)NC(=O)C1CN(C(=O)Cc2c[nH]c3cc(Cl)ccc23)CC2CN(C(=O)c3ccc(OC(C)C)c(OC)c3)CC21 (some centres unmarked) [I-115]
Kuramochi cells
  IC50: > 10 µM
CDK2/Cyclin E1(14-475)
  IC50: 5 to 10 µM

## CNC(=O)[C@H](CCCC1CCC(O)CC1)NC(=O)C1CN(C(=O)Cc2c[nH]c3cc(Cl)ccc23)CC2CN(C(=O)c3ccc(OC(C)C)c(OC)c3)CC21 (some centres unmarked) [I-116]
Kuramochi cells
  IC50: > 10 µM
CDK2/Cyclin E1(14-475)
  IC50: > 10 µM

## CNC(=O)[C@H](CCCc1cccnc1)NC(=O)C1CN(C(=O)Cc2c[nH]c3cc(Cl)ccc23)CC2CN(C(=O)c3ccc(OC(C)C)c(OC)c3)CC21 (some centres unmarked) [I-126]
Kuramochi cells
  IC50: > 10 µM
CDK2/Cyclin E1(14-475)
  IC50: 0.5 to 5 µM

## CNC(=O)[C@H](CCCc1ccccc1O)NC(=O)C1CN(C(=O)Cc2c[nH]c3cc(Cl)ccc23)CC2CN(C(=O)c3ccc(OC(C)C)c(OC)c3)CC21 (some centres unmarked) [I-127]
Kuramochi cells
  IC50: > 10 µM
CDK2/Cyclin E1(14-475)
  IC50: 0.5 to 5 µM

## CNC(=O)[C@H](CCCc1cccc(O)c1)NC(=O)C1CN(C(=O)Cc2c[nH]c3cc(Cl)ccc23)CC2CN(C(=O)c3ccc(OC(C)C)c(OC)c3)CC21 (some centres unmarked) [I-128]
Kuramochi cells
  IC50: 0.5 to 5 µM
CDK2/Cyclin E1(14-475)
  IC50: 5 to 10 µM

## CNC(=O)[C@H](NC(=O)C1CN(C(=O)Cc2c[nH]c3cc(Cl)ccc23)CC2CN(C(=O)c3ccc(OC(C)C)c(OC)c3)CC21)[C@H](C)OCC1CCCCC1 (some centres unmarked) [I-129]
Kuramochi cells
  IC50: > 10 µM
CDK2/Cyclin E1(14-475)
  IC50: > 10 µM

## CNC(=O)[C@H](CCCC1CCOCC1)NC(=O)C1CN(C(=O)Cc2c[nH]c3cc(Cl)ccc23)CC2CN(C(=O)c3ccc(OC(C)C)c(OC)c3)CC21 (some centres unmarked) [I-130]
Kuramochi cells
  IC50: > 10 µM
CDK2/Cyclin E1(14-475)
  IC50: 0.5 to 5 µM

## CNC(=O)[C@@H](CCCC1CCOCC1)NC(=O)C1CN(C(=O)Cc2c[nH]c3cc(Cl)ccc23)CC2CN(C(=O)c3ccc(OC(C)C)c(OC)c3)CC21 (some centres unmarked) [I-131]
Kuramochi cells
  IC50: 0.5 to 5 µM
CDK2/Cyclin E1(14-475)
  IC50: 5 to 10 µM

## CNC(=O)[C@@H](CCCC1CCCC1)NC(=O)C1CN(C(=O)Cc2c[nH]c3cc(Cl)ccc23)CC2CN(C(=O)c3ccc(OC(C)C)c(OC)c3)CC21 (some centres unmarked) [I-132]
Kuramochi cells
  IC50: > 10 µM
CDK2/Cyclin E1(14-475)
  IC50: 0.5 to 5 µM

## CNC(=O)[C@H](CCCc1ccc(C(F)(F)F)cc1)NC(=O)C1CN(C(=O)Cc2c[nH]c3cc(Cl)ccc23)CC2CN(C(=O)c3ccc(OC(C)C)c(OC)c3)CC21 (some centres unmarked) [I-133]
Kuramochi cells
  IC50: > 10 µM
CDK2/Cyclin E1(14-475)
  IC50: 0.5 to 5 µM

## CNC(=O)[C@@H](CCCc1ccc(C(F)(F)F)cc1)NC(=O)C1CN(C(=O)Cc2c[nH]c3cc(Cl)ccc23)CC2CN(C(=O)c3ccc(OC(C)C)c(OC)c3)CC21 (some centres unmarked) [I-134]
Kuramochi cells
  IC50: > 10 µM
CDK2/Cyclin E1(14-475)
  IC50: > 10 µM

## CNC(=O)C(NC(=O)C1CN(C(=O)Cc2c[nH]c3cc(Cl)ccc23)CC2CN(C(=O)c3ccc(OC(C)C)c(OC)c3)CC21)[C@@H](C)OCC1CCCCC1 (some centres unmarked) [I-135]
Kuramochi cells
  IC50: 0.5 to 5 µM
CDK2/Cyclin E1(14-475)
  IC50: ≤ 0.5 µM

## CNC(=O)[C@H](C/C=C/c1ccccc1)NC(=O)C1CN(C(=O)Cc2c[nH]c3cc(Cl)ccc23)CC2CN(C(=O)c3ccc(OC(C)C)c(OC)c3)CC21 (some centres unmarked) [I-136]
Kuramochi cells
  IC50: > 10 µM
CDK2/Cyclin E1(14-475)
  IC50: 0.5 to 5 µM

## CNC(=O)[C@H](CC#Cc1ccccc1)NC(=O)C1CN(C(=O)Cc2c[nH]c3cc(Cl)ccc23)CC2CN(C(=O)c3ccc(OC(C)C)c(OC)c3)CC21 (some centres unmarked) [I-137]
Kuramochi cells
  IC50: > 10 µM
CDK2/Cyclin E1(14-475)
  IC50: > 10 µM

## CNC(=O)[C@H](CCCc1ccncc1)NC(=O)C1CN(C(=O)Cc2c[nH]c3cc(Cl)ccc23)CC2CN(C(=O)c3ccc(OC(C)C)c(OC)c3)CC21 (some centres unmarked) [I-138]
Kuramochi cells
  IC50: > 10 µM
CDK2/Cyclin E1(14-475)
  IC50: > 10 µM

## CNC(=O)[C@H](CCCc1cccc2[nH]nnc12)NC(=O)C1CN(C(=O)Cc2c[nH]c3cc(Cl)ccc23)CC2CN(C(=O)c3ccc(OC(C)C)c(OC)c3)CC21 (some centres unmarked) [I-139]
Kuramochi cells
  IC50: > 10 µM
CDK2/Cyclin E1(14-475)
  IC50: 0.5 to 5 µM

## CNC(=O)[C@H](CCCC1CCCCCC1)NC(=O)C1CN(C(=O)Cc2c[nH]c3cc(Cl)ccc23)CC2CN(C(=O)c3ccc(OC(C)C)c(OC)c3)CC21 (some centres unmarked) [I-140]
Kuramochi cells
  IC50: > 10 µM
CDK2/Cyclin E1(14-475)
  IC50: 0.5 to 5 µM

## CNC(=O)[C@@H](CCCC1CCCCCC1)NC(=O)C1CN(C(=O)Cc2c[nH]c3cc(Cl)ccc23)CC2CN(C(=O)c3ccc(OC(C)C)c(OC)c3)CC21 (some centres unmarked) [I-141]
Kuramochi cells
  IC50: 5 to 10 µM
CDK2/Cyclin E1(14-475)
  IC50: > 10 µM

## CNC(=O)[C@@H](CCCC1CCC(O)CC1)NC(=O)C1CN(C(=O)Cc2c[nH]c3cc(Cl)ccc23)CC2CN(C(=O)c3ccc(OC(C)C)c(OC)c3)CC21 (some centres unmarked) [I-142]
Kuramochi cells
  IC50: > 10 µM
CDK2/Cyclin E1(14-475)
  IC50: > 10 µM

## CNC(=O)[C@H](CCCc1ccc2[nH]nnc2c1)NC(=O)C1CN(C(=O)Cc2c[nH]c3cc(Cl)ccc23)CC2CN(C(=O)c3ccc(OC(C)C)c(OC)c3)CC21 (some centres unmarked) [I-143]
Kuramochi cells
  IC50: > 10 µM
CDK2/Cyclin E1(14-475)
  IC50: > 10 µM
